# Several values for one entry are separate records, joined by “and”; a condition that tells them apart may be missing. Equal values may be shown once.
# Test system: S. Typhimurium PhoP-promoter GFP reporter counterscreen, fluorescence, 4 h
# Assay: S. Typhimurium GFP fluorescence dose response in modified counterscreen for PhoP regulon inhibitor project (AID 1981)
row,SMILES,IC50
1,Cc1cc(C)c2ccc(N)nc2c1O,49.9 µM
2,Nc1nc(N)c(Cc2ccc(Cl)cc2Cl)c(N)n1,149 µM
3,O=C(Nc1cccc(N=Cc2cc(Br)cc(Br)c2O)c1)c1ccco1,119 µM
4,CN(C)S(=O)(=O)c1cccc(NC(=S)N/N=C/c2cc(Br)ccc2O)c1,54.7 µM
5,CS(=O)(=O)c1ccc([C@@H](O)[C@@H](CF)NC(=O)C(Cl)Cl)cc1,7.98 µM
6,Clc1ccc(OCCCNCc2ccccc2)c(Br)c1,71.8 µM
7,Cc1ccc(-c2c[n+](CC(=O)Nc3nc(-c4ccc(F)cc4)cs3)c3n2CCC3)cc1,72.5 µM
8,CN1CCN(c2c(F)cc3c(=O)c(C(=O)O)cn4c3c2SCC4)CC1,7.73 µM and 6.13 µM
9,Oc1c(CN2CCN(c3ccc(F)cc3)CC2)cc(Cl)c2cccnc12,32 µM
10,COC12C(COC(N)=O)C3=C(C(=O)C(C)=C(N)C3=O)N1CC1C2N1C (centres undefined),65.8 µM
11,CCC(C)NC(=O)c1cn(CC)c2cc(N3CCN(C)CC3)c(F)cc2c1=O (centres undefined),59 µM
12,NC1CCN(c2nc3c(cc2F)c(=O)c(C(=O)O)cn3-c2ccc(F)cc2F)C1 (centres undefined),0.53 µM
13,O=C1NN(c2ccccc2)C(=O)/C1=C\c1coc2ccc(O)cc2c1=O,81.9 µM
14,COc1ccc(/C=N/Nc2cc(C)nc3c(C)cccc23)cc1,93.3 µM
15,CCCCCCCCCCOC(=O)Cn1c(COc2ccc(OC)cc2)[n+](C)c2ccccc21,36.5 µM and 36.1 µM
16,CCc1ccc(S(=O)(=O)/N=C2/C=C(Sc3ncn[nH]3)C(=O)c3ccccc32)cc1,138 µM
17,Cc1ccc(-c2csc(NC(=O)C[n+]3cc(-c4ccc(C)cc4)n4c3CCC4)n2)cc1,45.2 µM
18,C[C@H]1c2cccc(O)c2C(O)=C2C(=O)[C@]3(O)C(O)=C(C(N)=O)C(=O)[C@@H](N(C)C)C3[C@@H](O)C21 (some centres undefined),1.31 µM
19,Nc1nonc1-n1nnc(C(=O)N/N=C/c2cc(Br)ccc2O)c1CSC1=NCCS1,145 µM
20,COc1nsnc1NS(=O)(=O)c1ccc(NC(=S)NC(=O)c2cccnc2)cc1,34.4 µM
21,C#CCOCCOCCOCCNc1nc(N2CCN(C(=O)CCCCCCCCCCNC(=O)[C@H]([C@@H](C)CC)n3cc(CCCCN=C(N)N)nn3)CC2)nc(N2CCN(C(=O)CCCCCCCCCCNC(=O)[C@H](CCCN=C(N)N)n3cc(C[C@@H](C)CC)nn3)CC2)n1,30.6 µM
22,COc1ccc(C(=O)N/N=C/c2sc3ccccc3c2O)cc1,109 µM
23,Cc1ccc(C(c2cc(Cl)c3cccnc3c2O)N2CCN(C)CC2)cc1 (centres undefined),41.1 µM
24,Nc1c(Cl)ncnc1N/N=C/c1ccccn1,32.2 µM
25,Cc1cc(C(=O)N/N=C/c2ccc([N+](=O)[O-])s2)n[nH]1,36.7 µM
26,Cc1ccc(S(=O)(=O)Nc2cc(Cl)c(O)c3ncccc23)cc1,37.5 µM

row,SMILES,IC50
1,O=[N+]([O-])c1ccc(N/N=C/c2ccc[nH]2)cc1,141 µM
2,CCCCCCCCNC(C)C(O)c1ccc(SC(C)C)cc1 (centres undefined),121 µM
3,C=CC#CC[N+]1(CC#Cc2ccccc2)CCOCC1,30.3 µM
4,Cc1ccc(C)n1-c1cc(S(=O)(=O)N2CCOCC2)ccc1N1CCCC1,138 µM
5,NC1=NC[C@@H](Cc2ccc(O)cc2)N1CCCCC1CCCCC1,40.2 µM
6,O=C(/C=C/c1ccco1)Oc1cc(Br)cc(/C=N/NC(=O)c2ccccc2O)c1,134 µM
7,O=C1NC(=S)S/C1=C\C=C\c1ccc([N+](=O)[O-])o1,29.2 µM
8,NC1=NC2(CCCCC2)N=C(Nc2ccc(Br)cc2)N1,138 µM
9,Nc1ncn(C2O[C@H](CO)[C@@H](O)[C@H]2O)c(=O)n1 (some centres undefined),13.2 µM
10,O=S1(=O)Nc2c(ccc3cccnc23)-c2ccccc21,3.01 µM
11,CCNC(=S)NNC(=O)c1ccccn1,33.7 µM
12,CC(C)CCNCC(O)CON=C1c2ccccc2-c2ccccc21 (centres undefined),136 µM
13,Oc1c(CN2CCOCC2)cc(COCc2ccccc2)c2cccnc12,98.2 µM
14,O=C(O)CSc1cc(NS(=O)(=O)c2cccc([N+](=O)[O-])c2)c2ccccc2c1O,73.2 µM
15,CCn1cc(C(=O)O)c(=O)c2cc(F)c(N3CCN(C(=S)NC(=O)c4cccc(C)c4)CC3)cc21,25.4 µM
16,FC(F)(F)c1ccc2c(c1)N(CCCN1CCN(CCCl)CC1)c1ccccc1S2,146 µM
17,CCCCCOc1ccc(CSC(=N)N)cc1[N+](=O)[O-],86.8 µM
18,CC(=O)Oc1ccc(C(=O)[C@H]2[C@H]3C(=O)N(c4ccc5ccccc5c4)C(=O)[C@H]3[C@@H]3C=CC=NN32)cc1,138 µM
19,CCC(C)N1CCC2(CC1)N=c1c(c3c4c5c(C)c(O)c3c(O)c1=NC(=O)C(C)=CC=C[C@H](C)[C@H](O)[C@@H](C)[C@@H](O)[C@@H](C)[C@H](OC(C)=O)[C@H](C)[C@@H](OC)C=CO[C@@](C)(O5)C4=O)N2 (some centres undefined),3.03 µM
20,Clc1ccc(Cl)c(OCCCCNCc2ccccc2)c1,131 µM
21,Cc1sc2ncnc(N/N=C/c3ccccc3O)c2c1C,69.2 µM
22,COC(=O)C1C(O)C(C)C(O)C(C)(O)/C=C\C=C(/C)C(=O)Nc2c(C)c(OC(C)=O)c3c(c2O)C(=O)C(C)=C2OCOC(=C23)/C(C)=C/C(C)(O)C(O)C(C)C1O (centres undefined),18.6 µM
23,O=C(N/N=C/c1sc2ccccc2c1O)c1cccc2ccccc12,40 µM
24,CC(=O)N1CCN(c2cc3c(cc2F)c(=O)c(C(=O)O)cn3C2CC2)CC1,21.6 µM
25,CCn1cc(C(=O)O)c(=O)c2cc(F)c(N3CCN(C(=S)NC(=O)c4c(OC)cccc4OC)CC3)cc21,62.8 µM
26,Nc1nc2ccccc2n1Cc1ccc(Cl)c(Cl)c1,85.6 µM

row,SMILES,IC50
1,Cc1ccc(C(=O)N/N=C/c2cc(Br)ccc2O)cn1,68.4 µM
2,O=C(Oc1ccc[nH]c1=O)c1cc([N+](=O)[O-])cc([N+](=O)[O-])c1,79.7 µM
3,CCCCOc1ccc(Cc2cnc(N)nc2N)cc1,81.3 µM
4,CC(C)(C)/C(O)=C/c1nc2cc(Cl)ccc2oc1=O,55 µM
5,CCCCCCCCCCOC(=O)C[N+](C)(C)C/C=C(/C)Cl,83.3 µM
6,O=[N+]([O-])c1cc(CN2CCCC2)c2cccnc2c1O,57.1 µM
7,CCOc1ccc(NC(=O)c2ccc(NC(=O)c3cn4c5c(c(N6CCN(C)CC6)c(F)cc5c3=O)OCC4C)cc2)cc1 (centres undefined),4.1 µM
8,CCn1cc(C(=O)O)c(=O)c2cc(F)c(N3CCN(C(=S)NC(=O)c4ccccc4F)CC3)cc21,79.4 µM
9,CCOC(=O)C[n+]1c(C)sc2ccc(OC)cc21,133 µM
10,CCOC(=O)N1CCN(C(c2cccnc2)c2ccc3cccnc3c2O)CC1 (centres undefined),57.1 µM
11,COc1cc([N+](=O)[O-])cc(/C=N\NC(=O)C2COc3ccccc3O2)c1O (centres undefined),141 µM
12,O=[N+]([O-])c1ccc(-c2ccn[nH]2)o1,33.7 µM
13,CCCCCCCCCCCCCCCC[n+]1cccc2ccccc21,19.5 µM
14,Cc1cc(SCC(=O)N/N=C/c2ccc(O)c(O)c2O)c(C)cc1Br,22.8 µM
15,CC1CCc2cc(F)cc3c(=O)c(C(=O)O)cn1c23 (centres undefined),13.5 µM
16,O=C(O)C1Nc2c(O)cccc2C2C=CCC12 (centres undefined),64.9 µM
17,O=C1C=C(O)c2c(O)cc(O)c(O)c2C1=O,69.4 µM
18,COc1c(F)c(F)cc2c(=O)c(C(=O)O)cn(C3CC3)c12,66.3 µM
19,CC(C)C(=O)NC(c1cccc([N+](=O)[O-])c1)c1ccc2cccnc2c1O (centres undefined),23.3 µM
20,O=C(N/N=C/c1cccc([N+](=O)[O-])c1O)c1cccs1,20.4 µM
21,O=C(NC(CO)C(O)c1ccc([N+](=O)[O-])cc1)C(Cl)Cl (centres undefined),9.17 µM
22,COc1c(N2CCN(C(=S)Nc3ccccc3F)C(C)C2)c(F)cc2c(=O)c(C(=O)O)cn(C3CC3)c12 (centres undefined),2.31 µM
23,COc1ccccc1CNCCc1ccc(F)cc1,61.4 µM
24,O=C1OCC(CO)(CO)N=C1NNc1ccc(Cl)c(Cl)c1,53.3 µM
25,O=C(Nc1ccccc1)Nc1ncc([N+](=O)[O-])s1,53.4 µM
26,NC(N)=N/N=C/c1ccc(OCc2ccc(Cl)cc2)cc1,56.5 µM

row,SMILES,IC50
1,Nc1cc(Cl)c2nonc2c1[N+](=O)[O-],39.8 µM
2,CCCCNC(=O)c1cn(CC)c2cc(N3CCN(C)CC3)c(F)cc2c1=O,63.6 µM
3,Cc1ccccc1NC(=O)CCC(=O)N/N=C/c1cc([N+](=O)[O-])ccc1O,138 µM
4,CCC(C)(C)c1ccc(OCCCC[n+]2ccc(C)cc2)c(C(C)(C)CC)c1,83.2 µM
5,C#CCOCCOCCOCCNc1nc(N2CCN(C(=O)CCCCCCCCCCNC(=O)[C@H](CCCCN)n3cc(C[C@@H](C)CC)nn3)CC2)nc(N2CCN(C(=O)CCCCCCCCCCNC(=O)[C@H](CCCN=C(N)N)n3cc(C[C@@H](C)CC)nn3)CC2)n1,140 µM
6,CC(=O)Oc1cc2cccc(OC(C)=O)c(=O)c2c(OC(C)=O)c1OC(C)=O,17.7 µM
7,O=C(NN=C1CCN(Cc2ccccc2)CC1)c1cc2ccccc2cc1O,128 µM
8,O=C(C[n+]1cc(-c2ccc(Cl)c(Cl)c2)n2c1CCC2)N1c2ccccc2Sc2ccccc21,84.7 µM
9,Oc1ccc(/C=N/Nc2ncc(Br)cn2)c(O)c1,128 µM
10,CO[C@@]1(NC(=O)C2SC(=C(C(N)=O)C(=O)O)S2)C(=O)N2C(C(=O)O)=C(CSc3nnnn3C)CS[C@@H]21 (some centres undefined),21.7 µM
11,C=C1c2c(Cl)ccc(O)c2C(O)=C2C(=O)[C@]3(O)C(O)=C(C(N)=O)C(=O)[C@@H](N(C)C)[C@@H]3[C@@H](O)C12 (some centres undefined),0.94 µM
12,COc1ccc2[nH]c3c(C)c4ccncc4c(C)c3c2c1,80.6 µM
13,O=C1c2ccccc2NC(c2ccc(-c3ccc(Br)cc3)o2)N1O (centres undefined),53 µM
14,CN(C)[C@@H]1C(=O)C(C(N)=O)=C(O)[C@@]2(O)C(=O)C3=C(O)c4c(O)cccc4[C@@](C)(O)C3[C@H](O)C12 (some centres undefined),1.34 µM
15,COc1cccc(/C=N\NC(=O)Cn2nnc3ccccc32)c1O,75.1 µM
16,Oc1cc(Cl)ccc1Oc1ccc(Cl)cc1Cl,0.68 µM
17,CC[C@H]1OC(=O)[C@H](C)[C@@H](O[C@H]2C[C@@](C)(OC)[C@@H](O)[C@H](C)O2)[C@H](C)[C@@H](O[C@@H]2O[C@H](C)C[C@H](N(C)C)[C@H]2O)[C@](C)(O)C[C@@H](C)CN(C)[C@H](C)[C@@H](O)[C@]1(C)O,3.63 µM
18,O=S1(=O)N=C(N/N=C/c2ccccn2)c2ccccc21,29.1 µM
19,CC1CCC(C(C)C)C(OC(=O)Cn2c(COc3ccccc3)[n+](C)c3ccccc32)C1 (centres undefined),85.5 µM
20,Nc1cc2nsnc2cc1Br,30.1 µM
21,Oc1c(CN2CCc3ccccc3C2)cc(Cl)c2cccnc12,7.36 µM
22,CCCCCCCCCCOC(=O)Cn1c(COc2ccc(C)cc2)[n+](C)c2ccccc21,25.8 µM
23,CCN(CC)c1ccc(/C=N/Nc2nc3ccccc3[nH]2)c(O)c1,39.9 µM
24,CCC(C)(C)c1ccc(OCCCC[n+]2ccccc2)c(C(C)(C)CC)c1,63.4 µM
25,O=[N+]([O-])c1cc(Cl)c(O)c2ncccc12,5.99 µM
26,CCCCCCCNC(=O)C1(CC2CC(c3ccc(Cl)cc3)=NO2)CCNCC1 (centres undefined),47.8 µM

# Source: PubChem BioAssay AID1981 (Southern Research Specialized Biocontainment Screening …, 2009)
